The record followed here is patent US11260062B2, “Pharmaceutical composition for treatment of lung cancer comprising glucocorticoid-based compound” (AJOU UNIVERSITY INDUSTRY-ACADEMIC COOPERATION FOUNDATION, priority 2015, dated 2022).

Residues, ends and D or L forms follow the SMILES beside them. *: point of attachment. Cbz = O=C(OCc1ccccc1)* Some results are limits rather than exact numbers.

Data set [1] has as its system NRF2. The data set can be described thus: ARE-luciferase assay for NRF2 activity in A549-ARE cells. The format is cell-based. On the procedure:
In addition, A549-ARE cells were firstly dispensed into 5×10^3 cells per well in a 96 well plate, and each of the clinical compounds was treated with various concentrations (1 μM or 5 μM) after 24 hours. After 24 hours, 30 μl of a lysis buffer was added, and the mixture was dissolved at 4° C. for 40 minutes using a rocker. 20 μl of the dissolved product was added to a 96-well white plate and 100 μl of a luciferase substrate buffer having the following composition was added thereto and luciferase activity was measured by using a plate reader.
The remaining dissolved product was diluted five times with distilled water (DW) and the protein concentration was measured by the Bradford assay (BioRad). Specifically, 200 μl of the Bradford reagent (Coomassie Brilliant Blue G-250) diluted […] with distilled water was reacted with 5 μl of the remaining dissolved product and absorbance was measured at 595 nm. The protein concentration of the dissolved products was calculated by the same experiment using BSA solution as a standard protein. The luciferase value was calibrated by dividing the luciferase value measured above by the measured protein concentration.
Namely, the luciferase assays were performed using […] cells as the method of the Example 1.

In data set [2] the test system is NRF2. The data set can be described thus: Western blotting of NRF2 protein in A549 cells. The data set is classed as cell-based. Here is the method:
(§1) Specifically, for Western blotting, the A549 cells expressing Tet-pLKO-NCshRNA (negative control) and three Tet-pLKO-NRF2 shRNAs were treated with doxycycline for 3 days and 6 days, followed by separation of proteins. Each separated 10 μg of the protein was loaded on 8% acrylamide gel, electrophoresed, transferred to nitrocellulose (NC) membrane, and NRF2 antibody (Cell signaling, 1:1000) and actin antibody (SCBT, 1:1000) were diluted in TBST (Tris-Buffered Saline with Tween 20) buffer containing 5% skim milk and reacted overnight at 4° C. Subsequently, the secondary antibody was reacted for 1 hour, washed with TBST, and the protein expression level was measured using ECL (Enhanced chemiluminescence).
Firstly, the A549-tet-on cells transfected with the vector containing GCR-shRNA were constructed and after the treatment with doxycycline and clobetasol propionate, and protein extracts were prepared by hemolysis with cell lysis buffer (Cell signaling technology) supplemented with protease inhibitor cocktail (EMD millipore) to perform Western blotting. Then, western blotting was carried out in the same manner as in the Example 1. At this time, the concentration of the protein was determined by performing a Bradford assay according to the Example 1. In addition, luciferase assays were carried out in the same manner as in the Example 1.
(§2) According to accumulated research results, NRF2 protein levels can be regulated by mRNA transcription, or proteasome related degradation. To confirm whether NRF2 is suppressed through mRNA transcription inhibition or NRF2 is suppressed by promoting proteasome-related degradation, real-time PCR was performed on the cells, and MG132, a proteasome inhibitor, was treated and Western blotting was performed in the same manner as in the Example 1.
In general, proteasome degradation of the NRF2 protein consists of two pathways as shown in FIG. 5a: i.e. a pathway by KEAP1 and a pathway by GSK3-β-TrCP. […]
Background: Immunoblotting shows a protein as a band on a membrane.

Data set [3] relates to NRF2. The data set can be described thus: Western blotting of nuclear and cytoplasmic fractions (NRF2 migration to the nucleus). The format is cell-based. The text has this: Furthermore, GSK3 inhibits the migration of NRF2 to the nucleus, as known so far.
Data set [4] deals with NRF2. The data set can be described thus: Real-time PCR of NRF2 mRNA in A549 cells. The data set is classed as cell-based. On the procedure:
as §2
Specifically, for real-time PCR, total RNA was extracted from A549 cells using TRIZol (Invitrogen). Then, 1 μg of total RNA was reverse transcribed to cDNA using oligo dT primer and SuperScript II Reverse Transcriptase according to the manufacturer's instructions (Invitrogen). Thereafter, PCR was performed according to the manufacturer's instructions (Affymetrix) using HotStart-IT SYBR Green qPCR Master Mix.
In general terms: In qPCR the cycle at which signal appears reflects the starting amount.

The subject of data set [5] is NRF2 target proteins (G6PD, PGD, ME1, GCLM, AKR1B10 and AKR1C3). The data set can be described thus: Western blotting of NRF2 target proteins in KEAP1 mutant cells. The format is cell-based. To be noted: 2, 4 or 5 days. Here is the method: In order to confirm the effect of glucocorticoid on cells having high NRF2-activity, KEAP1 mutant cells (A549 and H2228) were treated with clobetasol propionate for 2 days, 4 days or 5 days, the expression of major NRF2 target proteins (G6PD, PGD, ME1, GCLM, AKR1B10 and AKR1C3) associated with redox regulation was measured by the Western blotting. As a control, the cell was used, in which NRF2-shRNA was transformed to H2228 cell line to inhibit NRF2 expression.

Data set [6] relates to A549 and H2228 cell lines. The data set can be described thus: Hydrogen peroxide (active oxygen) measurement with CMH2DCF-DA. The format is cell-based. On the procedure: In addition, because ME1 and GCLM proteins have detoxification activity of hydrogen peroxide, to confirm this change, the amount of hydrogen peroxide after the treatment with clobetasol propionate was measured as follows: The A549 and H2228 cell lines were cultured in 5 μM CMH2DCF-DA (Invitrogen) after the incubation for 30 minutes, the cultured cells were washed twice with phosphate buffered saline and incubated in the dark for 40 minutes with 90% dimethylsulfoxide (DMSO) and 10% PBS, and the fluorescent dye was released. After the culture, the supernatant of the culture liquid was dispensed into a 96-well plate and the amount of fluorescence was measured at 480/530 nm. For standardization of the measured fluorescence intensity, the cells remaining after removing the supernatant and washing with PBS, were stained with a crystal violet solution (20% methanol and 0.5% crystal violet) for 10 minutes at room temperature. After washing three times, the incubation was performed for solubilization in 1% SDS solution and absorbance at 570 nm was measured.

Data set [7] concerns A549. The data set can be described thus: Soft agar assay, A549. To be noted: A549 (KEAP1-mutant, LKB1-mutant), 2 weeks. The data set is classed as cell-based. On the procedure: (§3) The synergistic anticancer effects of the treatment of clobetasol propionate sole and the combined use with rapamycin, an mTOR inhibitor on LKB1/KEAP1 normal lung cancer cell line H1299, KEAP1 mutant cell line H2228, LKB1/KEAP1 mutant lung cancer cell lines A549 and H460 were analyzed by soft agar assay. In order to confirm whether the tumor inhibitory effect of clobetasol propionate was due to NRF2 inhibition, the effect was compared with tumor suppression effect in NRF2 knock-down lung cancer cell line using NRF2-shRNA-2, which was used in the Example 2.
(§4) Specifically, […] of a 0.7% agar-containing DMEM medium was added into a 12-well plate and was solidified (bottom agar) and 300 μl of a DMEM medium containing 3×10^3 cells and 0.35% agar was placed on the solidified agar medium and solidified (top agar+/− Doxycycline). After solidification, 250 μl of DMEM medium (+/− Doxycycline) was added and the number of colonies formed after culturing for 2 weeks in a CO2 incubator was determined, and the result was shown in FIGS. 7a to 7e.

Data set [8] relates to H2228. The data set can be described thus: Soft agar assay, H2228. The data set is classed as cell-based. To be noted: H2228 (KEAP1-mutant, LKB1-normal), 2 weeks. On the procedure: as §3, §4
For data set [9], the system named is H1299. The data set can be described thus: Soft agar assay, H1299. The format is cell-based. Conditions: H1299 (KEAP1-normal, LKB1-normal), 2 weeks. On the procedure:
as §3, §4

The test system of data set [10] is H460. The data set can be described thus: Soft agar assay, H460. To be noted: H460 (KEAP1-mutant, LKB1-mutant), sole treatment. The data set is classed as cell-based. On the procedure:
as §3, §4
Thereafter, the synergistic effect was analyzed when clobetasol propionate and rapamycin were simultaneously treated, or NRF2 was knocked down using NRF2-shRNA and treated with rapamycin.

Data set [11] has as its system A549-luc-C8 cells. In words: Xenograft assay with A549 cell line, tumor volume. The data set is classed as in vivo, Balb/c-nu mice. To be noted: 40 days.
From the text: Thereafter, mice were sacrificed in a 7.5% CO2 chamber and tumors were obtained for further analysis.
The nature of data set [12]: Xenograft assay, body weight / side effects. The data set is classed as in vivo, Balb/c-nu mice. Conditions: all treatment groups, 40 days. Here is the method: On the other hand, xenograft assay was performed using A549 cell line. Specifically, Balb/c-nu mice (6-8 weeks of age, Orient Bio, Seongnam, Korea) were prepared to perform tumor genografts and A549-luc-C8 cells (Perkin Elmer, 5.0×10^6/head) were injected subcutaneously into the mice. Two weeks later, when the size of tumors reached 50-100 mm^3, mice were divided to 6 groups: a control group administered with only vehicle (200 μl of PBS containing 1.2% DMSO, 0.25% PEG 400 and 0.25% tween 80), a group administered with 0.5 mg/kg of clobetasol propionate (CP), a group administered with 1 mg/kg of clobetasol propionate, a group administered with 1 mg/kg of rapamycin, and Combination 1 (CP 0.5 mg/kg+rapamycin 1 mg/kg) and Combination 2 (CP 1 mg/kg+rapamycin 1 mg/kg). Then, for the next 40 days, the vehicle and rapamycin (n=5 per group) were injected intraperitoneally daily (5 days per week) and clobetasol propionate was injected intraperitoneally once every 2 days (3 days per week).
Primary tumor size and body weight were measured every 3 to 4 days by a caliper and a balance, and the volume of the tumor was V (mm^3)=(A×B^2)/2 (V is volume, A Is the long diameter and B is the short diameter).

Data set [13] has as its system NRF2. The data set can be described thus: Verification of doxycycline-inducible NRF2-shRNA in A549-ARE cells (Western blotting, luciferase, GFP). The format is cell-based. Conditions: doxycycline-induced, compared among three NRF2-shRNAs. Here is the method: In order to construct a Tet-inducible shRNA expression system, the following shRNAs were inserted into a tet-pLKO-pyro vector (Dmitri Wiederschain: Addgene plasmid #21915) and then A549-ARE cell line expressing doxycycline-inducible NRF2-shRNA was established by the transduction.
Then, 0.2 μg/mL of doxycycline (DOX; Clontech) was treated every 2 days in the medium to induce NRF2-shRNA expression. Thereafter, the NRF2 expression inhibition efficiency was verified by Western blotting, luciferase activity measurement and GFP expression measurement using a fluorescence microscope.
as §1

Where [14] appears, read: co-treatment with clobetasol propionate.
Setting [15] is: KEAP1 mutant A549 cells, co-treatment with clobetasol propionate.
[16] abbreviates: A549-tet-on GCR-shRNA cells, effect blocked by inhibition of GCR expression.

Take `CC(C)C[C@@H](C=O)NC(=O)[C@H](CC(C)C)NC(=O)[C@H](CC(C)C)NC(=O)OCc1ccccc1` [MG132] (Cbz-Leu-Leu-Leu-aldehyde): in [1] (setting [14]), the “inhibition of NRF2 activity by glucocorticoids, on MG132 treatment” value is listed as “does not recover”. The “amount of NRF2 protein inhibited by clobetasol propionate, on MG132 treatment” value in [2] (setting [14]) is “recovered”.
For the compound `Cc1c[nH]c(-c2cnc(NCCNc3ccc(C#N)cn3)nc2-c2ccc(Cl)cc2Cl)n1` [GSK3 inhibitor, CT99021], the “inhibition of activity of NRF2 induced by clobetasol propionate, on GSK3 inhibitor treatment” value in data set [1] (setting [15]) is “inhibited”. Also, the “NRF2 proteolysis induced by clobetasol propionate, on GSK3 inhibitor treatment” value in data set [2] (setting [15]) is given as “inhibited”. In data set [3] (under the treatment of MG132, co-treatment with clobetasol propionate), the “effect of clobetasol propionate on NRF2 migration into the nucleus, on GSK3 inhibitor treatment” value is “completely blocked”.
For the compound `CCC(=O)O[C@]1(C(=O)CCl)[C@@H](C)C[C@H]2[C@@H]3CCC4=CC(=O)C=C[C@]4(C)[C@@]3(F)[C@@H](O)C[C@@]21C` [clobetasol propionate], in data set [1] (100 nM, measured at 8, 24 and 48 hours), the “time for which inhibition of NRF2 activity was maintained” value was “at least 48 hours”. The “NRF2 inhibitory effect at 1 μM compared among 13 GCs-based drugs” value in [1] (1 μM) is “most excellent inhibitory effect”. Also, in data set [1] (setting [16]), the “activity of the NRF2 protein (luciferase)” value is given as “significantly reduced”. Also, the “concentration from which excellent NRF2 inhibitory effect is shown (luciferase)” value in [1] (concentration comparison of 13 GCs-based drugs) is reported as at least 1 nM. The “level of the NRF2 protein (Western blot)” value in [2] (setting [16]) was “significantly reduced”. In addition, the “mRNA level of NRF2” value in data set [4] is recorded as “did not affect”. The “migration of NRF2 into the nucleus” value in [3] (under the treatment of MG132) is on record as “inhibited”. The “NRF2 target protein expression” value in data set [5] (A549 cell line) is recorded as “effectively inhibited”. For the same compound, the “expression of NRF2 target which has antioxidative activity” value in data set [5] (H2228 cell line) is given as “effectively inhibited”. For the same compound, the “active oxygen (hydrogen peroxide)” value in [6] (A549) and in data set [6] (H2228) was “significantly increased” throughout. For the same compound, the “cell growth (colonies in soft agar)” value in data set [7] was “strongly inhibited”; in data set [8], “strongly inhibited”; in data set [9] it was “did not significantly affect”; in data set [10], “slightly inhibited”. Also, the “anticancer effect (tumor volume)” value in data set [11] (0.5 mpk intraperitoneally once every 2 days) and in data set [11] (1 mpk intraperitoneally once every 2 days) was “distinct anticancer effect” each time. Moreover, in data set [12], the “body weight of the mice” value is on record as “no significant change”.
For `CO[C@H]1C[C@@H]2CC[C@@H](C)[C@@](O)(O2)C(=O)C(=O)N2CCCC[C@H]2C(=O)O[C@H]([C@H](C)C[C@@H]2CC[C@@H](O)[C@H](OC)C2)CC(=O)[C@H](C)/C=C(\C)[C@@H](O)[C@@H](OC)C(=O)[C@H](C)C[C@H](C)/C=C/C=C/C=C/1C` [rapamycin], the “body weight of the mice” value in data set [12] was “no significant change”.
As for “NRF2sh-2: doxycyclin-inducible NRF2-shRNA, SEQ. NO. 2 of Table 1 (CCGGGCTCCTACTGTGATGTGAAATCTCGAGATTTCACATCACAGTAGGAGCTTTTTG)”, the “inhibition of NRF2 protein expression, luciferase activity and GFP signal” value in data set [13] is listed as “most effectively”.
